Test results as given in ChEMBL document CHEMBL1201862, “PubChem BioAssay data set” (2004).
Calls of active or inactive are those of the source.

Experiments:
H9c2 = test: cells; format: functional, cell-based; conditions: Rattus norvegicus, H9c2, Myocardium;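 further: confirmatory concentration-response retest of ultra-high-throughput screening hits for modulation of myocardial damage; cell death induced by hydrogen peroxide oxidative stress; compound pretreatment for 60 min then peroxide exposure for 2 h; potency is for protecting the cells against peroxide damage rather than for killing them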
[1] = biological target: T1, Rac GTPase-activating protein 1 (Homo sapiens, UniProt Q9H0H5); test: blockers of MgcRacGAP-driven Rac1 GTP hydrolysis – biochemical, ADP Hunter fluorescence, primary and confirmatory, confirmation (AID 624330); format: functional
T1 sequence (Q9H0H5 whole entry): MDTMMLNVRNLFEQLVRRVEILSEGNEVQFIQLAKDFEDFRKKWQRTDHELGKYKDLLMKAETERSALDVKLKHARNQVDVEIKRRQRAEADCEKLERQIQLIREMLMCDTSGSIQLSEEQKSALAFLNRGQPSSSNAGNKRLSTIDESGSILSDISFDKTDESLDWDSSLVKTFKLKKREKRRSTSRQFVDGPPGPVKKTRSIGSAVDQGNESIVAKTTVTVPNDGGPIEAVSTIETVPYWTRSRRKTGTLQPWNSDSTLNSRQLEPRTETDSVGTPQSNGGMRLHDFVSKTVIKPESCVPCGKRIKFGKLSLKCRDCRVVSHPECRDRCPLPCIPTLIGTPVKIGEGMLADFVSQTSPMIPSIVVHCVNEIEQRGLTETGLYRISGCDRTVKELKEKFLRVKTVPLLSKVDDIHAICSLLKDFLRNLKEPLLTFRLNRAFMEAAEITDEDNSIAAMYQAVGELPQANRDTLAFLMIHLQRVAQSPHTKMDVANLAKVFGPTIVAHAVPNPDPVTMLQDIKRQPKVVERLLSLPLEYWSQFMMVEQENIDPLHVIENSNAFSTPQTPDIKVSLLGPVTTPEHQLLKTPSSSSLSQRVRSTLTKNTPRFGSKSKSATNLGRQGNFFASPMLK

[2] = non-specific 3'UTR reporter inhibition in Clone20-Shn3RL – cell-based, Renilla luciferase, cherry-picked, counter-screen for Shn3 inhibitor project, dose response (AID 624133); format: functional
[3] = reduction of Shn3 3'UTR-driven luciferase in osteoblasts – cell-based, Clone20 osteoblasts, firefly luciferase, cherry-picked, dose response (AID 624132); format: functional;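 further: firefly luciferase luminescence from reporter carrying the Shn3 3'UTR in osteoblasts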
[4] = viability of uninfected HEp-2 cells – cell-based, HTS, cytotoxicity control for RSV inhibitor project, dose response (AID 2410); format: functional; conditions: human respiratory syncytial virus
Paired box protein Pax-8 = Paired box protein Pax-8 (Homo sapiens, UniProt Q06710); test: PAX8 transcriptional activity inhibition in RMG-I – RMG-I cells, luciferase, cherry-pick, dose response (AID 687027); format: functional, cell-based;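 further: luciferase reporter driven by Pax8 target thyroperoxidase promoter measured by SteadyGlo luminescence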
[5] = biological target: FAD-linked sulfhydryl oxidase ALR (Homo sapiens, UniProt P55789); test: ALR-catalysed DTT oxidation blockers – biochemical, H2O2 detection, luminescence, cherry-pick, dose response (AID 493248)
[6] = Luminescence Cell-Based Dose Response HTS to Identify Activators of Luciferase Translation or Activity in H4 […] Cells. [Related pubchem assays: 1829 (Project Summary), 1814 (Primary HTS)]; format: functional
[7] = biological target: T2, RNA-binding protein pos-1 (Caenorhabditis elegans, UniProt G5EF15); test: disruptors of C. elegans POS-1 RNA interaction – biochemical, fluorescence polarization, dose response (AID 1964);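 further: purified POS-1 fused to maltose binding protein made in E. coli; potency of compounds blocking POS-1 binding to fluorescent RNA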
T2 sequence (G5EF15 whole entry): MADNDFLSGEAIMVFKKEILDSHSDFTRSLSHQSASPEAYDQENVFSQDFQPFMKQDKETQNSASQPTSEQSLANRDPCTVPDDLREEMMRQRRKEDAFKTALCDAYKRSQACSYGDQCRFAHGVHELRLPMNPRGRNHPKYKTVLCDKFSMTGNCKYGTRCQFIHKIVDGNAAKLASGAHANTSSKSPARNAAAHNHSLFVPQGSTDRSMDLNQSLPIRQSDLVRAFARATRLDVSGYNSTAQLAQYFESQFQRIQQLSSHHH

[8] = biological target: T3, Zinc finger protein mex-5 (Caenorhabditis elegans, UniProt Q9XUB2); test: potency of MEX-5 RNA-binding blockers – biochemical, C. elegans, fluorescence polarization, dose response (AID 1960)
T3 sequence (Q9XUB2 whole entry): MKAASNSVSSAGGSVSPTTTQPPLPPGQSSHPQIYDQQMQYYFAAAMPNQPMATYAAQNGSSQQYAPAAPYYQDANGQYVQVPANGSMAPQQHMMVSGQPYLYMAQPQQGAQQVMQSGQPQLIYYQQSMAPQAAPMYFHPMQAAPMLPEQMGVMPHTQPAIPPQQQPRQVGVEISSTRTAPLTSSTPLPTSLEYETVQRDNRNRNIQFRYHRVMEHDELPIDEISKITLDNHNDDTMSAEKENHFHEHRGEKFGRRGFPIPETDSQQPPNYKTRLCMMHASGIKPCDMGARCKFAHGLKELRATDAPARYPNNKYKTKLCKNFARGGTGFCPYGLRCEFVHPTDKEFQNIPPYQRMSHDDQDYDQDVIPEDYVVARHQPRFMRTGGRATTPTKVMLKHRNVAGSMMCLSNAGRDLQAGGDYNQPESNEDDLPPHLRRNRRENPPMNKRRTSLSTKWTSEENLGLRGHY

H4 = test: Luminescence Cell-Based Dose Response HTS to Identify Activators of 5'UTR Stem-Loop Driven Prion Protein mRNA Translation in H4 Neuroglioblastoma Cells. [Related pubchem assays: 1829 (Project Summary), 1814 (Primary HTS)]; format: functional; conditions: Homo sapiens
[9] = Luminescence Cell-Based Dose Confirmation HTS to Identify Activators of 5'UTR Stem-Loop Driven Alpha-Synuclein mRNA Translation in H4 Neuroglioblastoma Cells. [Related pubchem assays: 1829 (Project Summary), 1814 (Primary HTS)]; format: functional
INS1 = test: INS-1E survival protection against cytokine death – cell-based, luminescence, retest, dose response (AID 449756); format: functional; conditions: Rattus norvegicus;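 further: cell death triggered by IL-1 beta plus TNF-alpha plus IFN-gamma mixture; protective hits raise ATP signal compared with cytokine alone wells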
[10] = NIH3T3 cell viability loss – ATP luminescence, mouse fibroblasts, counter-screen, dose response (AID 2010); format: functional, cell-based;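 further: cells exposed to compound for about 90 hours before reading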
[11] = Trypanosoma cruzi growth suppression in host cells – NIH3T3 host cells, beta-gal luminescence, confirmation (AID 2044); format: functional, cell-based;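 further: intracellular parasites grown in NIH/3T3 mouse fibroblasts as host cells; luminescent beta-galactosidase reporter signal from transgenic T. cruzi replicating inside host cells; inhibitors lower the luminescence signal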

Sequence of FAD-linked sulfhydryl oxidase ALR (P55789 whole entry): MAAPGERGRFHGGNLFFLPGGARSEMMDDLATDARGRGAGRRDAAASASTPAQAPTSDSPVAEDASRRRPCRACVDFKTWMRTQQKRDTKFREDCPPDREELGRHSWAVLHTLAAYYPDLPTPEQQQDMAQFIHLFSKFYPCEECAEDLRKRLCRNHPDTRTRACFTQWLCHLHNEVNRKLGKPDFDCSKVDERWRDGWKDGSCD
Sequence of Paired box protein Pax-8 (Q06710 whole entry): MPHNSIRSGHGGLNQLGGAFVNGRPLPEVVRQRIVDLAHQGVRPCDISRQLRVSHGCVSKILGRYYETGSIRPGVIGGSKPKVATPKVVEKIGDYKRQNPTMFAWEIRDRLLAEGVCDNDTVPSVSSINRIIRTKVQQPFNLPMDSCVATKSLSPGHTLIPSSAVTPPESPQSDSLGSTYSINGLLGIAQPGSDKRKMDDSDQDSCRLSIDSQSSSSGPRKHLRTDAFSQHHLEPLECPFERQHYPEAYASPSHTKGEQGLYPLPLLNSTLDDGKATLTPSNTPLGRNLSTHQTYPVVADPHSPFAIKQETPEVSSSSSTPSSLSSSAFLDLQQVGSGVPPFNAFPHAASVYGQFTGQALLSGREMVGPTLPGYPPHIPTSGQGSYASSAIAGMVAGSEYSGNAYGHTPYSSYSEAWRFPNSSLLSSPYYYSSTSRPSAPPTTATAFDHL

COc1ccc(OCC(=O)N/N=C/c2cccc3cccnc23)cc1
IC50 (H9c2): > 79 µM (inactive)

CN(C)CCNC(C(=O)Nc1cccc(C(F)(F)F)c1)c1ccccc1 (stereo not drawn)
IC50 [1]: 76.5 µM (active)

COc1cc2nc(O)n3nc(-c4ccccc4)nc3c2cc1OC
IC50 (H9c2): > 79 µM (inactive)

COc1ccc(-c2cc(C(=O)N3CCN(c4ccccc4)CC3)c3ccccc3n2)cc1OC
IC50 (H9c2): 63.6 µM (inactive)

COc1ccc([C@@]23Oc4cc(OC)cc(OC)c4[C@]2(O)[C@H](O)[C@H](C(=O)N(C)C)[C@H]3c2ccccc2)cc1 [ROCAGLAMIDE]
AC50 [2]: 0.889 µM (active) | AC50 [3]: < 0.26 µM (active)

COc1cc2ncnc(N[C@H](C)c3ccccc3)c2cc1OC
AC50 [2]: 22.7 µM (active) | AC50 [3]: 8.72 µM (active)

COc1cccc(-c2cnc3c(NC=O)cc(-c4cccc(NC(C)=O)c4)cn23)c1
IC50 (H9c2): > 79 µM (inactive)

COc1cc(-c2ccc(N)c(OC)c2)ccc1N
IC50 [1]: 9 µM (active)

O=C(N/N=C/c1cn(-c2ccccc2)nc1-c1cccs1)c1ccccc1F
CC50 [4]: 25.6 µM (active) | IC50 (H9c2): > 79 µM (inactive)

O=C(c1cccs1)N1CCN(Cc2ccncc2)CC1
IC50 [1]: 88.5 µM (active)

CCN(CC(=O)Nc1ccc(OC)cc1)C(=O)CCc1nc(O)c2ccccc2n1
IC50 (H9c2): > 79 µM (inactive)

CCN(CC)c1ccc(NC(=O)COC(=O)CCc2cc(OC)c(OC)c(OC)c2)cc1
IC50 [1]: 81.1 µM (active)

COc1cc2c(C#CCCCO)c(-c3ccsc3)oc(=O)c2cc1OC
IC50 (H9c2): > 79 µM (inactive)

Cc1ccc(S(=O)(=O)c2nc(S(=O)(=O)c3ccccc3)sc2N2CCN(C)CC2)cc1
AC50 (Paired box protein Pax-8): 7.56 µM (active)

O=C(CN1CCCc2ccccc21)N/N=C/c1ccc(O)cc1O
AC50 [5]: 2.35 µM (active)

Cc1ccc(NC(=O)CCC(=O)N/N=C/c2ccc(O)cc2)cc1
IC50 [1]: 51.4 µM (active)

O=C1COc2ccc(-c3nnc(O)c4ccccc34)cc2N1
IC50 (H9c2): 5.26 µM (active)

COc1cc(OC)cc(C(=O)N2CCN=C2SCc2cccnc2)c1
AC50 [5]: 0.154 µM (active)

O=C(COc1ccc2ccccc2c1)N1CCN(Cc2ccncc2)CC1
IC50 [1]: 62.2 µM (active)

Cc1ccc(-c2nnc(O)c3ccccc23)cc1S(=O)(=O)NCCN1CCOCC1
IC50 (H9c2): 14.2 µM (active)

COc1cccc(C2c3c(oc4ccccc4c3=O)C(=O)N2Cc2ccco2)c1 (stereo not drawn)
EC50 [6]: 55.4 µM (active) | EC50 [7]: 36.3 µM (active) | EC50 [8]: 150 µM (active) | EC50 (H4): 68 µM (active) | EC50 [9]: 1.7 µM (active)

CN(CC(=O)Nc1ccccc1Br)C(=O)CCc1nc(O)c2ccccc2n1
IC50 (H9c2): 12.7 µM (active)

CCN(CC)c1ccc(/C=N/Nc2nc(C)cc(C)n2)c(O)c1
AC50 (INS1): 2.84 µM (active) | IC50 [1]: 62.8 µM (active)

COc1ccc(CCNC(=O)c2cc3c(C)nccc3nc2O)cc1OC
IC50 (H9c2): > 79 µM (inactive)

CC(=O)Oc1cc2oc(=O)cc(C)c2cc1Cl
AC50 [5]: 2.62 µM (active)

Cc1nc(SCc2ccc(C(=O)O)cc2)nc2c1CCCC2
AC50 [5]: 3.29 µM (active)

COc1cccc(C(=O)Nc2nnc(-c3ccc(Cl)cc3)o2)c1
IC50 (H9c2): > 79 µM (inactive)

CSc1ccc(CN2CCN(Cc3ccccc3Cl)CC2)cc1
IC50 [1]: 95.1 µM (active)

O=C1CCC(C(=O)Nc2ccccc2N2CCCC2)=NN1
AC50 [5]: 3.7 µM (active)

Cc1cc(NC(=O)COC(=O)COc2ccc3c4c(c(=O)oc3c2)CCC4)no1
IC50 (H9c2): 13.1 µM (active)

O=C(CCc1nc(O)c2ccccc2n1)NNC(=O)c1ccc(Cl)cc1
IC50 (H9c2): > 79 µM (inactive)

Cc1nc2c(c(=O)n1CCC1=CCCCC1)c1nc3ccccc3nc1n2/N=C/c1ccccc1
IC50 (H9c2): > 79 µM (inactive)

CCOC(=O)COc1cc(OCC(=O)OCC)c2c3c(c(=O)oc2c1)CCCC3
IC50 (H9c2): 10.5 µM (active)

COc1ccc(C(=O)CCS(=O)(=O)c2ccc(C)cc2)cc1OC
AC50 (Paired box protein Pax-8): 9.82 µM (active)

Cn1c(C(=O)Nc2ccc3c(c2)OCCO3)cc2c(=O)n(C)c3ccccc3c21
IC50 (H9c2): > 79 µM (inactive)

COc1cc(/C=N/NC(=O)c2cc(-c3ccc4c(c3)OCO4)[nH]n2)ccc1O
AC50 [5]: 0.408 µM (active)

CC(C)c1cc(C(N)=O)c(NC(=O)c2cccc(COc3ccc(Br)cc3)c2)s1
EC50 [6]: 41.9 µM (active) | EC50 [7]: > 300 µM (not active) | EC50 [10]: > 30 µM (not active) | EC50 [11]: 1.87 µM (active) | EC50 [8]: > 300 µM (not active) | EC50 (H4): 0.366 µM (active) | EC50 [9]: 11.3 µM (active)

C[C@@H]1CCCCO[C@@H](CN(C)Cc2ccc(C(F)(F)F)cc2)[C@H](C)CN([C@H](C)CO)C(=O)c2cc(NC(=O)Cc3ccccc3)ccc2O1
AC50 (Paired box protein Pax-8): 4.62 µM (active)

CCCS(=O)(=O)N1CCN(C2Cc3ccccc3C2)CC1
IC50 [1]: 180 µM (active)

CCCCCCn1c(C)nc2c(c1=O)c1nc3ccccc3nc1n2/N=C/c1ccco1
IC50 (H9c2): 23.3 µM (active)

CN1C/C(=C\c2ccc(N3CCOCC3)cc2)C(=O)/C(=C/c2ccc(N3CCOCC3)cc2)C1
CC50 [4]: 22.8 µM (active) | EC50 [6]: 48.1 µM (active) | EC50 (H4): > 120 µM (not active) | EC50 [9]: 23.7 µM (active)

C/C(=N\NC(=O)c1ccc(N/N=C(\C)c2ccncc2)cc1)c1ccncc1
AC50 [5]: 0.107 µM (active)

COc1cc(-c2cc(C(=O)O)c3c(OC)c(OC)c(OC)cc3n2)ccc1O
IC50 [1]: 126 µM (active)

CC(=O)N1c2ccc(S(=O)(=O)N3CCC(C(=O)N4CCN(c5cc(Cl)ccc5C)CC4)CC3)cc2CC1C (stereo not drawn)
AC50 [2]: 6.67 µM (active) | AC50 [3]: 3.1 µM (active)

COc1ccccc1CNc1ncc(-c2ccccc2)n1C
IC50 [1]: 49.5 µM (active)

CCOc1cc(/C=C(\C#N)C(=O)NCc2cccnc2)ccc1O
IC50 [1]: 42.4 µM (active)

CC1(c2ccccc2)NC(=O)N(CC(=O)Nc2ccc(S(=O)(=O)Nc3ncccn3)cc2)C1=O (stereo not drawn)
AC50 [5]: 0.675 µM (active)

COc1cccc(/C=N/NC(=O)NC2CCCCC2)c1O
AC50 [5]: 3.71 µM (active)

C[C@@H]1CN([C@@H](C)CO)C(=O)c2cc(NC(=O)Nc3ccc(C(F)(F)F)cc3)ccc2O[C@@H](C)CCCCO[C@H]1CN(C)Cc1ccc(Cl)c(Cl)c1
AC50 (Paired box protein Pax-8): 9.66 µM (active)

CN(CC(=O)NCc1ccccc1)Cc1cccc(F)c1
IC50 [1]: 67 µM (active)

COc1cc(/C=N/Nc2cc(C)nc(NS(=O)(=O)c3ccccc3)n2)ccc1O
IC50 [1]: 37.8 µM (active)

Oc1ccc(/C=N/NC(=S)NCc2ccco2)cc1
IC50 [1]: 35.3 µM (active)

COc1ccc(C2NC(=O)CS2)cc1OC (stereo not drawn)
AC50 [5]: 0.093 µM (active)

COc1cc(C)cc2oc(=O)c(CC(=O)N3CCN(C(=O)C4COc5ccccc5O4)CC3)c(C)c12 (stereo not drawn)
IC50 (H9c2): > 79 µM (inactive)

COc1ccc(NC(=O)CC2C(=O)Nc3ccccc3N2CC(=O)N2CCCC2)cc1 (stereo not drawn)
AC50 [5]: 6.65 µM (active)
